# Source: patent US11679123B2, “N-acylated hyaluronic acid for hyperuricemia and gouty arthritis” (Queen's University at Kingston, priority 2018, dated 2023)
# Experiments:
# [1] = test system: rats with MSU-induced acute gout; test: MSU crystal-induced acute gout in rats: ankle swelling ratio; format: in vivo, Wistar rats; conditions: COL 0.3 mg/kg; at 12 h; P<0.05
# Description: Male Wistar rats (n=50, 8 weeks: 160-200 g) were purchased from Liaoning Changsheng Biotechnology Company Ltd, Jilin, China (SCXK (Liao)-2015-0001). These rats were housed in plastic cages and maintained on a 12-h light/12-h dark cycle (lights on 7:00-19:00 h) under standard laboratory conditions of 55% relative humidity and at 23° C.±1° C. They were given standard chow (Liaoning Changsheng Biotechnology Company Ltd, Jilin, China) and tap water ad libitum. All experimental procedures were approved by the Animal Ethics Committee of Jilin University (Reference NO. 201605).
# (§1) An experimental model of MSU-induced gouty arthritis was used in order to evaluate the anti-inflammatory activities of BHA. Rats were randomly divided into five groups (n=10), include a control group (NC), a model group (MC), a 0.3 mg/kg colchicine group (COL), a 10 μg BHA group (10BHA) and a 50 μg BHA group (50BHA). MSU crystals were suspended in 0.9% sterile saline (30 mg/mL) prior to use. The colchicine group rats were orally administrated colchicine (0.3 mg/kg) for 8 days, and all rats except for the control group were injected with 3 mg of MSU (Sigma, USA) at the 6th day into the right ankle synovial space 1 h after gavage feeding. Meanwhile a turbid sample of MSU mixed with 100 μg of BHA or 500 μg of BHA per mL of solution for 10BHA rats or 50BHA rats. At the 8th day, 1 h after the administration of the final agents, blood was sampled from the caudal veins of the rats and the right ankle joints of the rats were collected and fixed in 4% paraformaldehyde. Serum was separated and stored at −80° C. prior to analysis (FIG. 2A, E).
# The right ankle circumferences of all rats at 0, 4, 12, 24 and 48 h after MSU injection were measured. The swelling ratio (%) was used to evaluate the gouty arthritis and calculated according to the change of the circumference via the formula: Swelling ratio (%)=(Ct−C0)/C0, wherein, Ct represented the circumference at time t (in h) and C0 represented the circumference at 0 h.
# [2] = test system: inflammation factors; test: Serum inflammation factors by ELISA in rats with MSU-induced acute gout; format: in vivo, Wistar rats
# Description: as §1
# The serum levels of interleukin-1α (IL-1α, 41734), IL-1β (43360), interleukin-6 (IL-6, 41731), interleukin-8 (IL-8, 41716), IL-10 (41736), interleukin-16 (IL-16, 41628), C—X—C motif chemokine 10 (CXCL10, 41570), monocyte chemoattractant protein 1 (MCP-1, 41640), macrophage inflammatory protein 1α (MIP-1α, 41645), interferon gamma (IFN-γ, 41739), TNF-α (41721), tumor necrosis factor-β (TNF-β, 41673), nuclear factor κ-light-chain-enhancer of activated B cells (NF-κB, 43358), 6-keto-prostaglandin F-1α (6-Keto-PGF1α, 41809) and prostaglandin E2 (PGE2, 41609) in rats were determined by the ELISA method using related Elisa Kits (Yuanye Bio-Technology Co. Ltd, Shanghai, China) according to the manufacturer's instructions.
# [3] = test system: inflammatory cell infiltration in the synovium; test: Histopathological assessment of ankle joint synovium (H&E) in MSU crystal-injected rats; format: in vivo, Wistar rats; conditions: COL 0.3 mg/kg; MSU crystal-injected rats; H&E
# Description: In one study, a histopathological assessment was conducted of synovium in ankle joints of rats after H&E staining. The right ankles of […] were excised and fixed in 4% paraformaldehyde, and subsequently decalcified using 10% ethylenediaminetetraacetic acid. They were then dehydrated via processing in alcohol/xylene mixtures with different proportions and concentrations. The histological sections were stained with hematoxylin and eosin. The histopathological changes of the joint synovium were assessed for the degree of inflammatory cell infiltrate, by an experienced histopathologist. Microscopy at magnifications of 40×, 100×, 200× and 400× were investigated for typical areas for each of the five groups.
# The right ankles of rats were collected and fixed in 4% paraformaldehyde, and subsequently decalcified using 10% ethylenediaminetetraacetic acid. They were then dehydrated by processing in alcohol/xylene mixtures with different proportions and concentrations. The histological sections were later stained with hematoxylin and eosin for observation under an optical microscope (200×). The histopathological changes were analyzed with regard to deformaties of the joint synovium and infiltration by inflammatory cells into the ankle.
# [4] = test system: rats with MSU-induced gouty arthritis; test: Dose screening on MSU crystals-induced acute gout in rats: ankle swelling ratio; format: in vivo, Wistar rats; conditions: n=6, COL 0.3 mg/kg, at 4 h only, P<0.05
# Description: (§2) 48 male Wistar rats (8 weeks: 180-200 g), purchased from Yisi Experimental Animal Technology Company Ltd, Jilin, China (SCXK (Ji)-2016-0003), were housed in plastic cages and maintained on a 12-h light/12-h dark cycle (lights on 7:00-19:00 h) under standard laboratory conditions of 55% relative humidity and 23° C.±1° C. They were given standard chow and tap water ad libitum. All experimental procedures were approved by the Animal Ethics Committee of Jilin University (Reference NO. 201605).
# An experimental model of MSU-induced gouty arthritis was used in order to evaluate the anti-inflammatory activities of BHA similar as previous studies with some modifications. Rats were randomly divided into eight groups (n=6), including control group (NC), model group (MC), 0.3 mg/kg colchicine group (COL), 5 μg BHA group (5BHA), 10 μg BHA group (10BHA), 25 μg BHA group (25BHA), 50 μg BHA group (50BHA), 100 μg BHA group (100BHA). MSU crystals were suspended in 0.9% sterile saline (30 mg/mL) prior to use. Rats in the colchicine group were orally administered colchicine (0.3 mg/kg) for 8 days. At day 6, MSU solution (100 μL of 30 mg/mL) was intra-articular injected at the right ankles of all rats except the NC group m which were injected with saline solution. 5BHA, 10BHA, 25BHA, 50BHA and 100BHA groups received intra-articular injections of 5, 10, 25, 50, or 100 μg BHA along with MSU solution (100 μL of 30 mg/mL MSU solution contains 5, 10, 25, 50 or 100 μg BHA) were administered according to the stated BHA doses.
# The right ankle circumference of all rats at 0, 4, 12, 24 and 48 h after MSU injection was measured. The swelling ratio (%) was used for evaluating the gouty arthritis and calculated according to the change of the circumference following the formula: Swelling ratio (%)=(Ct−C0)/C0. Wherein, Ct represented the circumference at t hour and C0 represented the circumference at 0 hour.
# [5] = test system: creatinine (Cr) and blood urea nitrogen (BUN); test: Cr and urea nitrogen in serum and liver of hyperuricemic mice (renal function); format: in vivo, Balb/C mice; conditions: AL
# Description: (§3) Due to the presence of uricase in mice, a hyperuricemic mouse model was established by using uricase inhibitor and large amounts of purine. Mice were randomly divided into five groups (n=10), including the control group (NC), model group (MC), 20 mg/kg of AL (Shimao Tianjie Pharmaceutical Co. Ltd, Jiangsu, China) group, 10 μg BHA group (10BHA) and 50 μg BHA group (50BHA). Oral administration of AL and intraperitoneal injection of BHA were administered according to the required dose, and all mice were gavage fed 20 g/kg yeast extract powder 12 h prior to the administration of AL and BHA except for NC mice for 8 days. From the 6th to 8th day, 1-h prior to AL and BHA administration, 300 mg/kg of OXO (Sigma, USA) was intraperitoneally injected to all of the mice except those in the control group. At 1 h after the final drug administration, blood was sampled from caudal veins of the mice, serum was separated and their livers were quickly collected (FIG. 3A, E). All samples were stored at −80° C. until assay measurements were performed.
# (§4) The levels of reactive oxygen species (ROS, 43355), malondialdehyde (MDA, 43124) glutathione peroxidase (GSH-Px, 43390), superoxide dismutase (SOD, 43125), catalase (CAT, 43356), creatinine (Cr, 43353) and blood urea nitrogen (BUN, 43352) in the serum and livers of mice were determined using ELISA Kits (Yuanye Bio-Technology Co. Ltd, Shanghai, China) according to the manufacturer's instructions.
# [6] = test system: factors related to oxidative stress; test: Factors related to oxidative stress in serum and liver of hyperuricemia mice (ELISA); format: in vivo, Balb/C mice
# Description: as §3, §4
# [7] = test system: xanthine oxidase (XO); test: XO levels in serum and liver of hyperuricemic mice; format: in vivo, Balb/C mice; conditions: AL 20 mg/kg; P<0.05
# Description: as §3
# (§5) The serum UA concentrations and XO levels in the serum and liver were determined with a standard diagnostic kit (MAK077, MAK078 Sigma, USA) according to the manufacturer's instructions.
# [8] = test system: hyperuricemic mice; test: Serum UA in OXO- and yeast extract-induced hyperuricemic mice; format: in vivo, Balb/C mice; conditions: 20 mg/kg AL oral, P<0.01
# Description: as §2, with “Male Balb/C mice (n=50, 8” for “48 male Wistar rats (8”, “18-22” for “180-200”, “(Ji)-2016-0003). These mice” for “(Ji)-2016-0003),”, “23±1°” for “23° C.±1°”, “feed” for “chow”
# Due to the presence of uricase in mice, a hyperuricemic mouse model was established by using uricase inhibitor and large amounts of purine. Mice were randomly divided into five groups (n=10), including the control group (NC), model group (MC), 20 mg/kg of AL (Shimao Tianjie Pharmaceutical Co. Ltd, Jiangsu, China) group, 10 μg BHA group (10BHA) and 50 μg BHA group (50BHA). Oral administration of AL and intraperitoneal injection of BHA were administered according to the required dose, and all mice were gavage fed 20 g/kg yeast extract powder 12 h prior to the administration of AL and BHA except for NC mice for 8 days. […]
# as §5
# [9] = serum, MSU-induced acute gout rats, COL 0.3 mg/kg oral 8 days, mean ± S.D., n=10
# [10] = hyperuricemia mice, AL 20 mg/kg oral, mean ± S.D., n=10
structure (smiles),measurement,setting,value
"COc1cc2c(c(OC)c1OC)-c1ccc(OC)c(=O)cc1[C@@H](NC(C)=O)CC2 [COL, colchicine, reference compound]",ankle swelling compared to the MSU treated group,[1],suppressed ankle swelling
same,decrease of serum MCP-1 compared to rats injected with MSU,"[2]; COL 0.3 mg/kg, P<0.05",9.93%
same,6-Keto-PGF1α,[2]; [9],266.3 ± 12.7
same,IFN-γ,[2]; [9],88.2 ± 35 pg/mL
same,IL-1α,[2]; [9],74.3 ± 12.6 pg/mL
same,IL-1β,[2]; [9],19.1 ± 1.2 pg/mL
same,IL-6,[2]; [9],74.7 ± 7.9 pg/mL
same,IL-8,[2]; [9],222.7 ± 11.5 pg/mL
same,IL-10,[2]; [9],11.5 ± 0.7 pg/mL
same,IL-16,[2]; [9],416.7 ± 16.1 pg/mL
same,IP-10,[2]; [9],153.5 ± 20.3 pg/mL
same,MCP-1,[2]; [9],311.5 ± 20.8 pg/mL
same,MIP-1α,[2]; [9],294.6 ± 21.5 pg/mL
same,NF-κB,[2]; [9],494.6 ± 132. pg/mL
same,PGE2,[2]; [9],207.7 ± 10^ pg/mL
same,TNF-α,[2]; [9],154.8 ± 8.5 pg/mL
same,TNF-β,[2]; [9],124.8 ± 10.5 pg/mL
same,pathological changes (inflammatory cell infiltration) in synovium,[3],partially prevented the pathological changes
same,swelling of the ankle compared to MSU treated group,[4],significantly suppressed swelling of the ankle
"Oc1ncnc2[nH]ncc12 [AL, allopurinol, reference compound]",lowering of Cr in the liver,[5]; P<0.01,15.28%
same,lowering of Cr in the serum,"[5]; hyperuricemic mice, P<0.05",11.52%
same,lowering of urea nitrogen in the liver,"[5]; hyperuricemic mice, P<0.05",25.25%
same,suppression of MDA level in the liver,"[6]; AL, hyperuricemic mice, P<0.05",13.47%
same,suppression of MDA level in the serum,"[6]; AL, hyperuricemic mice, P<0.05",6.66%
same,suppression of ROS level in the liver,"[6]; AL, hyperuricemic mice, P<0.05",17.86%
same,suppression of ROS level in the serum,"[6]; AL, hyperuricemic mice, P<0.05",9.48%
same,Liver CAT,[6]; [10],12.9 ± 1.3 U/mg
same,Liver GSH-PX,[6]; [10],66.1 ± 7.2 U/mg
same,Liver MDA,[6]; [10],3.1 ± 0.2 nmol/mg
same,Liver ROS,[6]; [10],63.2 ± 6.2 U/mg
same,Liver SOD,[6]; [10],48.5 ± 3.4 U/mg
same,Serum CAT,[6]; [10],41.6 ± 5.6 U/mL
same,Serum GSH-PX,[6]; [10],231.8 ± 7.7 U/mL
same,Serum MDA,[6]; [10],10.2 ± 0.5 nmol/mL
same,Serum ROS,[6]; [10],240.9 ± 23.9 U/mL
same,Serum SOD,[6]; [10],159.2 ± 8 U/mL
same,reduction of XO levels in the serum compared to untreated mice,[7],23.76%
same,suppression of serum UA level,[8],46.38%
